{
  "source": "paper PMC3088537",
  "about": "“Production, purification, sequencing and activity spectra of mutacins D-123.1 and F-59.1” (BMC Microbiology, 2011)",
  "assay_in_all_cases": "Inhibitory spectrum, critical dilution with spot test",
  "format_in_all_cases": "cell-based",
  "key": {"[1]": {"system": "Staphylococcus carnosus", "conditions": "purified mutacin, 5 μL spotted on soft agar lawn on TSAYE; reciprocal of highest dilution showing inhibition zone", "experimental": "(§1) Streptococcus mutans 59.1 and 123.1 produce mutacins F-59.1 and D-123.1 respectively. Micrococcus luteus ATCC 272 (ATCC, Manassas, VA, USA) was used as the indicator strain for the mutacin activity assays. All bacteria were routinely grown aerobically at 37°C in TSBYE made of TSB (Difco laboratories, Detroit, MI, USA) supplemented with 0.3% yeast extract (Becton Dickinson & Co., Cockeysville, MD, USA) or on TSAYE plates made of TSA (Difco) enriched with 0.3% yeast extract. Lactobacillus salivarius strain (provided by Sylvain Moineau, Université Laval, Québec, QC, Canada) was cultivated aerobically at 30°C in MRS medium (Oxoid, Nepean, ON, Canada). Other bacterial strains used for the inhibitory spectra determination are described in Mota-Meira et al. and Morency et al.. Staphylococcus carnosus was obtained from the strain collection of the Department of Microbiology, Biochemistry and Bioinformatics (Université Laval).\n(§2) Mutacin activity was determined by the spot test using Micrococcus luteus ATCC 272 as sensitive strain where two-fold dilutions were prepared in acidified (pH 2) peptone water (0.5%). Antibacterial activity spectra of purified mutacins was tested against a panel of bacterial strains using the critical dilution method combined with the spot test method as described previously. Briefly, overnight cultures of test strains in TSBYE were diluted in fresh broth before inoculating 5 mL of soft agar (0.75%) in order to obtain confluent lawns of growth on TSAYE plates. Five μL of purified mutacins, diluted in acidified (10 mM HCl) distilled water to promote solubility of the peptides, were deposited on the lawn and allowed to dry before appropriate incubation. Mutacin activity was expressed in AU/mL and corresponds to the reciprocal of the highest dilution showing a noticeable inhibition zone on the lawn."}, "[2]": {"system": "Streptococcus sobrinus ATCC 27352", "conditions": "purified mutacin, 5 μL spotted on soft agar lawn on TSAYE; reciprocal of highest dilution showing inhibition zone", "experimental": "as §1, §2"}, "[3]": {"system": "Enterococcus hirae ATCC 8043", "conditions": "purified mutacin, 5 μL spotted on soft agar lawn on TSAYE; reciprocal of highest dilution showing inhibition zone", "experimental": "as §1, §2"}, "[4]": {"system": "Listeria murrayi ATCC 25420", "conditions": "purified mutacin, 5 μL spotted on soft agar lawn on TSAYE; reciprocal of highest dilution showing inhibition zone", "experimental": "as §1, §2"}, "[5]": {"system": "Listeria ivanovii HPB 28", "conditions": "purified mutacin, 5 μL spotted on soft agar lawn on TSAYE; reciprocal of highest dilution showing inhibition zone", "experimental": "as §1, §2"}, "[6]": {"system": "Enterococcus faecium ATCC 19434", "conditions": "purified mutacin, 5 μL spotted on soft agar lawn on TSAYE; reciprocal of highest dilution showing inhibition zone", "experimental": "as §1, §2"}, "[7]": {"system": "Listeria grayi ATCC 19120", "conditions": "purified mutacin, 5 μL spotted on soft agar lawn on TSAYE; reciprocal of highest dilution showing inhibition zone", "experimental": "as §1, §2"}, "[8]": {"system": "Streptococcus suis serotype 2", "conditions": "purified mutacin, 5 μL spotted on soft agar lawn on TSAYE; reciprocal of highest dilution showing inhibition zone", "experimental": "as §1, §2"}, "[9]": {"system": "Bacillus cereus ATCC 2", "conditions": "purified mutacin, 5 μL spotted on soft agar lawn on TSAYE; reciprocal of highest dilution showing inhibition zone", "experimental": "as §1, §2"}, "[10]": {"system": "Lactococcus lactis ATCC 11454", "conditions": "purified mutacin, 5 μL spotted on soft agar lawn on TSAYE; reciprocal of highest dilution showing inhibition zone", "experimental": "as §1, §2"}, "[11]": {"system": "Lactobacillus salivarius SMQ 876", "conditions": "purified mutacin, 5 μL spotted on soft agar lawn; reciprocal of highest dilution showing inhibition zone", "experimental": "as §1, §2"}, "[12]": {"system": "Staphylococcus aureus ATCC 6538", "conditions": "purified mutacin, 5 μL spotted on soft agar lawn on TSAYE; reciprocal of highest dilution showing inhibition zone", "experimental": "as §1, §2"}, "[13]": {"system": "Pediococcus acidilactici UL5", "conditions": "purified mutacin, 5 μL spotted on soft agar lawn on TSAYE; reciprocal of highest dilution showing inhibition zone", "experimental": "as §1, §2"}, "[14]": {"system": "Micrococcus luteus ATCC 272", "conditions": "purified mutacin, 5 μL spotted on soft agar lawn on TSAYE; reciprocal of highest dilution showing inhibition zone", "experimental": "as §1, §2"}, "[15]": {"system": "Bacillus subtilis ATCC 6051", "conditions": "purified mutacin, 5 μL spotted on soft agar lawn on TSAYE; reciprocal of highest dilution showing inhibition zone", "experimental": "as §1, §2"}, "[16]": {"system": "Streptococcus pyogenes ATCC 10389", "conditions": "purified mutacin, 5 μL spotted on soft agar lawn on TSAYE; reciprocal of highest dilution showing inhibition zone", "experimental": "as §1, §2"}, "[17]": {"system": "Enterococcus faecalis ATCC 27235", "conditions": "purified mutacin, 5 μL spotted on soft agar lawn on TSAYE; reciprocal of highest dilution showing inhibition zone", "experimental": "as §1, §2"}, "[18]": {"system": "Streptococcus salivarius", "conditions": "purified mutacin, 5 μL spotted on soft agar lawn on TSAYE; reciprocal of highest dilution showing inhibition zone", "experimental": "as §1, §2"}},
  "note": "Marks after values point to notes of the source that are not given here. Bridge positions count the residues as written; N and C are the ends. Ends that are not written are not given here.",
  "data": [
    {"sequence": "KYYGNGVTCGKHSCSVDWSKATTNI (disulfide 9-14 (inferred)) [mutacin F-59.1, pediocin-like (class IIa) bacteriocin of 25 amino acids produced by Streptococcus mutans 59.1; UniProt P86386]", "values": [
      {"measurement": "Activity of mutacin against Staphylococcus carnosus", "setting": "[1]", "result": 800, "unit": "AU/mL"},
      {"measurement": "Activity of mutacin against Streptococcus sobrinus ATCC 27352", "setting": "[2]", "result": 800, "unit": "AU/mL"},
      {"measurement": "Activity of mutacin against Enterococcus hirae ATCC 8043", "setting": "[3]", "result": 200, "unit": "AU/mL"},
      {"measurement": "Activity of mutacin against Listeria murrayi ATCC 25420", "setting": "[4]", "result": "200^b AU/mL"},
      {"measurement": "Activity of mutacin against Listeria ivanovii HPB 28", "setting": "[5]", "result": 200, "unit": "AU/mL"},
      {"measurement": "Activity of mutacin against Enterococcus faecium ATCC 19434", "setting": "[6]", "result": 1600, "unit": "AU/mL"},
      {"measurement": "Activity of mutacin against Listeria grayi ATCC 19120", "setting": "[7]", "result": 200, "unit": "AU/mL"},
      {"measurement": "Activity of mutacin against Streptococcus suis serotype 2", "setting": "[8]", "result": 0, "unit": "AU/mL"},
      {"measurement": "Activity of mutacin against Bacillus cereus ATCC 2", "setting": "[9]", "result": 400, "unit": "AU/mL"},
      {"measurement": "Activity of mutacin against Lactococcus lactis ATCC 11454", "setting": "[10]", "result": 400, "unit": "AU/mL"},
      {"measurement": "Activity of mutacin against Lactobacillus salivarius SMQ 876", "setting": "[11]", "result": 0, "unit": "AU/mL"},
      {"measurement": "Activity of mutacin against Staphylococcus aureus ATCC 6538", "setting": "[12]", "result": 0, "unit": "AU/mL"},
      {"measurement": "Activity of mutacin against Pediococcus acidilactici UL5", "setting": "[13]", "result": 800, "unit": "AU/mL"},
      {"measurement": "Activity of mutacin against Micrococcus luteus ATCC 272", "setting": "[14]", "result": 3200, "unit": "AU/mL"},
      {"measurement": "Activity of mutacin against Bacillus subtilis ATCC 6051", "setting": "[15]", "result": 400, "unit": "AU/mL"},
      {"measurement": "Activity of mutacin against Streptococcus pyogenes ATCC 10389", "setting": "[16]", "result": 0, "unit": "AU/mL"},
      {"measurement": "Activity of mutacin against Enterococcus faecalis ATCC 27235", "setting": "[17]", "result": 200, "unit": "AU/mL"},
      {"measurement": "Activity of mutacin against Streptococcus salivarius ATCC 25923", "setting": "[18]", "result": 800, "unit": "AU/mL"}
    ]}
  ]
}
